This passage reports IC50 results from patent publication EP0973746B1, “SUBSTITUTED 3-CYANO QUINOLINES” (Wyeth Holdings Corporation, priority 1997, dated 1998).

Values after ≈ are worked out from the molar mass of the structure shown.

For the experiment, the system named is CCL228. The experiment is described as follows: Inhibition of cancer cell growth as measured by cell number, CCL228. Type of experiment: cell-based. The conditions noted are these: Homo sapiens, 48 h, read-out: IC50 CCL228.

Take `CCOc1cc2ncc(C#N)c(Nc3cccc(Br)c3)c2cc1OCC` [Example 47, 4-[(3-Bromophenyl)amino]6,7-diethoxy-3-quinolinecarbonitrile]: the 50% inhibitory concentration (IC50) came out at 0.0715 µg/mL (≈ 0.174 µM).

The IC50 is the point on the concentration scale where inhibition reaches its midpoint.
